In the NIST ThermoML archive (doi:10.1016/j.fluid.2014.10.002):
“And” between values parts separate entries of the source, which are not always exact repeats. Equal entries are not always repeated.

Conditions: Liquid

CCCCC(CC)COC(=O)c1ccc(C(=O)OCC(CC)CCCC)c(C(=O)OCC(CC)CCCC)c1 (stereo unspecified) [tris(2-ethylhexyl) trimellitate]
Conditions	viscosity
303.15 K, 980 kPa, Vibrating wire viscometry	158.5 mPa·s
303.15 K, 1030 kPa, Vibrating wire viscometry	158.4 mPa·s
303.15 K, 1080 kPa, Vibrating wire viscometry	158.9 mPa·s
303.15 K, 15060 kPa, Vibrating wire viscometry	220.6 mPa·s and 220.2 mPa·s
303.15 K, 29810 kPa, Vibrating wire viscometry	302.4 mPa·s and 302.1 mPa·s
303.15 K, 29820 kPa, Vibrating wire viscometry	303.1 mPa·s
303.16 K, 2820 kPa, Vibrating wire viscometry	165 mPa·s
303.16 K, 2850 kPa, Vibrating wire viscometry	165.1 mPa·s and 165.7 mPa·s
303.16 K, 5120 kPa, Vibrating wire viscometry	174.3 mPa·s
303.16 K, 5130 kPa, Vibrating wire viscometry	173.4 mPa·s and 173.8 mPa·s and 173.6 mPa·s
303.16 K, 7680 kPa, Vibrating wire viscometry	183.8 mPa·s [middle of 4 runs]
303.16 K, 7690 kPa, Vibrating wire viscometry	183.8 mPa·s
303.16 K, 9830 kPa, Vibrating wire viscometry	193.9 mPa·s
303.16 K, 9850 kPa, Vibrating wire viscometry	193.9 mPa·s
303.16 K, 9880 kPa, Vibrating wire viscometry	194.1 mPa·s
303.16 K, 19950 kPa, Vibrating wire viscometry	242.6 mPa·s
303.16 K, 19980 kPa, Vibrating wire viscometry	242.8 mPa·s
303.16 K, 19990 kPa, Vibrating wire viscometry	242.8 mPa·s
303.16 K, 20010 kPa, Vibrating wire viscometry	243.8 mPa·s
303.16 K, 29820 kPa, Vibrating wire viscometry	303.5 mPa·s and 303.8 mPa·s
303.16 K, 29830 kPa, Vibrating wire viscometry	302.3 mPa·s
303.16 K, 40160 kPa, Vibrating wire viscometry	369.8 mPa·s
303.16 K, 40170 kPa, Vibrating wire viscometry	370.5 mPa·s and 373.1 mPa·s and 370.9 mPa·s
303.16 K, 40180 kPa, Vibrating wire viscometry	373.2 mPa·s and 369.5 mPa·s
303.17 K, 101.33 kPa, Capillary tube (Ostwald / Ubbelohde) method	153.9 mPa·s
303.17 K, 50390 kPa, Vibrating wire viscometry	462.2 mPa·s
303.17 K, 50400 kPa, Vibrating wire viscometry	462.1 mPa·s [middle of 4 runs]
313.16 K, 1220 kPa, Vibrating wire viscometry	87.78 mPa·s
313.16 K, 1230 kPa, Vibrating wire viscometry	87.98 mPa·s
313.16 K, 1310 kPa, Vibrating wire viscometry	88.02 mPa·s
313.16 K, 1320 kPa, Vibrating wire viscometry	87.62 mPa·s and 87.55 mPa·s
313.16 K, 2780 kPa, Vibrating wire viscometry	90.52 mPa·s
313.16 K, 5160 kPa, Vibrating wire viscometry	96.14 mPa·s
313.16 K, 5170 kPa, Vibrating wire viscometry	96.24 mPa·s
313.16 K, 5190 kPa, Vibrating wire viscometry	96.26 mPa·s
313.16 K, 5210 kPa, Vibrating wire viscometry	95.79 mPa·s
313.16 K, 7710 kPa, Vibrating wire viscometry	101.6 mPa·s
313.16 K, 7780 kPa, Vibrating wire viscometry	101.7 mPa·s and 101.9 mPa·s and 101.4 mPa·s
313.16 K, 7790 kPa, Vibrating wire viscometry	101.3 mPa·s
313.16 K, 14800 kPa, Vibrating wire viscometry	117.6 mPa·s
313.16 K, 14820 kPa, Vibrating wire viscometry	117.4 mPa·s
313.16 K, 20040 kPa, Vibrating wire viscometry	132.4 mPa·s
313.16 K, 20050 kPa, Vibrating wire viscometry	131.6 mPa·s
313.16 K, 20060 kPa, Vibrating wire viscometry	131.6 mPa·s
313.16 K, 29930 kPa, Vibrating wire viscometry	159.8 mPa·s
313.16 K, 29970 kPa, Vibrating wire viscometry	160.2 mPa·s
313.16 K, 29980 kPa, Vibrating wire viscometry	159.8 mPa·s
313.16 K, 39960 kPa, Vibrating wire viscometry	197.4 mPa·s
313.16 K, 39980 kPa, Vibrating wire viscometry	197 mPa·s
313.16 K, 40000 kPa, Vibrating wire viscometry	196.9 mPa·s
313.16 K, 40020 kPa, Vibrating wire viscometry	196.6 mPa·s
313.16 K, 50020 kPa, Vibrating wire viscometry	239.1 mPa·s
313.16 K, 50040 kPa, Vibrating wire viscometry	240.3 mPa·s and 239.4 mPa·s
313.16 K, 50070 kPa, Vibrating wire viscometry	239.5 mPa·s
313.16 K, 50080 kPa, Vibrating wire viscometry	239.6 mPa·s
313.16 K, 50090 kPa, Vibrating wire viscometry	239.3 mPa·s
313.16 K, 65420 kPa, Vibrating wire viscometry	317.8 mPa·s
313.16 K, 65430 kPa, Vibrating wire viscometry	319 mPa·s
313.16 K, 65440 kPa, Vibrating wire viscometry	319.8 mPa·s
313.16 K, 65470 kPa, Vibrating wire viscometry	317.5 mPa·s
313.17 K, 2780 kPa, Vibrating wire viscometry	90.59 mPa·s and 90.6 mPa·s
313.17 K, 2790 kPa, Vibrating wire viscometry	90.29 mPa·s and 90.54 mPa·s
313.17 K, 2800 kPa, Vibrating wire viscometry	90.3 mPa·s
313.17 K, 5170 kPa, Vibrating wire viscometry	95.9 mPa·s
313.17 K, 14770 kPa, Vibrating wire viscometry	117 mPa·s
313.17 K, 20060 kPa, Vibrating wire viscometry	132 mPa·s
313.17 K, 29940 kPa, Vibrating wire viscometry	159.5 mPa·s
313.18 K, 101.33 kPa, Capillary tube (Ostwald / Ubbelohde) method	86.37 mPa·s
323.1 K, 101.33 kPa, Capillary tube (Ostwald / Ubbelohde) method	52.41 mPa·s
328.06 K, 101.33 kPa, Capillary tube (Ostwald / Ubbelohde) method	41.71 mPa·s
328.15 K, 2490 kPa, Vibrating wire viscometry	43.18 mPa·s
328.15 K, 2520 kPa, Vibrating wire viscometry	43.29 mPa·s
328.15 K, 5120 kPa, Vibrating wire viscometry	45.81 mPa·s
328.15 K, 7540 kPa, Vibrating wire viscometry	47.59 mPa·s
328.15 K, 7550 kPa, Vibrating wire viscometry	47.68 mPa·s
328.15 K, 7560 kPa, Vibrating wire viscometry	47.66 mPa·s
328.15 K, 10410 kPa, Vibrating wire viscometry	50.91 mPa·s
328.15 K, 10430 kPa, Vibrating wire viscometry	50.81 mPa·s
328.15 K, 15140 kPa, Vibrating wire viscometry	55.66 mPa·s
328.15 K, 20020 kPa, Vibrating wire viscometry	60.75 mPa·s
328.15 K, 20040 kPa, Vibrating wire viscometry	60.75 mPa·s and 60.87 mPa·s
328.15 K, 30400 kPa, Vibrating wire viscometry	74.44 mPa·s
328.15 K, 30410 kPa, Vibrating wire viscometry	74.65 mPa·s
328.15 K, 30420 kPa, Vibrating wire viscometry	74.52 mPa·s
328.15 K, 40610 kPa, Vibrating wire viscometry	89.47 mPa·s
328.15 K, 50030 kPa, Vibrating wire viscometry	105.8 mPa·s and 105.5 mPa·s and 105.9 mPa·s
328.15 K, 50040 kPa, Vibrating wire viscometry	105.5 mPa·s and 105.7 mPa·s
328.15 K, 50050 kPa, Vibrating wire viscometry	105.7 mPa·s
328.15 K, 50070 kPa, Vibrating wire viscometry	105.9 mPa·s
328.15 K, 50080 kPa, Vibrating wire viscometry	105.8 mPa·s
328.15 K, 65530 kPa, Vibrating wire viscometry	139.6 mPa·s
328.16 K, 1000 kPa, Vibrating wire viscometry	41.66 mPa·s
328.16 K, 1030 kPa, Vibrating wire viscometry	41.61 mPa·s and 41.82 mPa·s
328.16 K, 1050 kPa, Vibrating wire viscometry	41.76 mPa·s
328.16 K, 2510 kPa, Vibrating wire viscometry	43.2 mPa·s
328.16 K, 2520 kPa, Vibrating wire viscometry	43.23 mPa·s
328.16 K, 2530 kPa, Vibrating wire viscometry	43.31 mPa·s
328.16 K, 5100 kPa, Vibrating wire viscometry	45.73 mPa·s and 45.69 mPa·s
328.16 K, 5130 kPa, Vibrating wire viscometry	45.73 mPa·s and 45.72 mPa·s
328.16 K, 5140 kPa, Vibrating wire viscometry	45.67 mPa·s
328.16 K, 7580 kPa, Vibrating wire viscometry	47.76 mPa·s
328.16 K, 10390 kPa, Vibrating wire viscometry	50.78 mPa·s
328.16 K, 10400 kPa, Vibrating wire viscometry	50.84 mPa·s and 50.82 mPa·s
328.16 K, 10410 kPa, Vibrating wire viscometry	50.74 mPa·s
328.16 K, 15100 kPa, Vibrating wire viscometry	55.71 mPa·s
328.16 K, 15110 kPa, Vibrating wire viscometry	55.52 mPa·s
328.16 K, 15130 kPa, Vibrating wire viscometry	55.62 mPa·s
328.16 K, 20020 kPa, Vibrating wire viscometry	60.83 mPa·s
328.16 K, 20030 kPa, Vibrating wire viscometry	60.93 mPa·s
328.16 K, 30420 kPa, Vibrating wire viscometry	74.4 mPa·s
328.16 K, 40570 kPa, Vibrating wire viscometry	89.15 mPa·s
328.16 K, 40590 kPa, Vibrating wire viscometry	89.1 mPa·s
328.16 K, 40620 kPa, Vibrating wire viscometry	89.25 mPa·s
328.16 K, 50040 kPa, Vibrating wire viscometry	105.5 mPa·s
328.16 K, 65490 kPa, Vibrating wire viscometry	139.6 mPa·s
343.14 K, 1080 kPa, Vibrating wire viscometry	22.75 mPa·s
343.14 K, 10140 kPa, Vibrating wire viscometry	27.1 mPa·s
343.14 K, 10150 kPa, Vibrating wire viscometry	27.11 mPa·s and 27.07 mPa·s
343.14 K, 19890 kPa, Vibrating wire viscometry	32.41 mPa·s
343.14 K, 19900 kPa, Vibrating wire viscometry	32.35 mPa·s and 32.43 mPa·s
343.14 K, 19910 kPa, Vibrating wire viscometry	32.45 mPa·s
343.14 K, 19920 kPa, Vibrating wire viscometry	32.38 mPa·s
343.14 K, 19930 kPa, Vibrating wire viscometry	32.41 mPa·s
343.14 K, 30240 kPa, Vibrating wire viscometry	38.59 mPa·s
343.14 K, 30250 kPa, Vibrating wire viscometry	38.67 mPa·s and 38.63 mPa·s and 38.6 mPa·s
343.14 K, 30260 kPa, Vibrating wire viscometry	38.59 mPa·s
343.14 K, 40260 kPa, Vibrating wire viscometry	45.94 mPa·s
343.14 K, 40270 kPa, Vibrating wire viscometry	45.89 mPa·s and 45.83 mPa·s
343.14 K, 40280 kPa, Vibrating wire viscometry	45.91 mPa·s
343.14 K, 49840 kPa, Vibrating wire viscometry	53.72 mPa·s and 53.82 mPa·s
343.14 K, 49860 kPa, Vibrating wire viscometry	53.79 mPa·s
